PubChem BioAssay (NCI)
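At the GI50, growth is halved. Definition used: TGI = concentration required for complete inhibition of growth.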

Columns and labels:
Test in all cases: NCI anticancer screen, dose series, 384-well format
[1] = system: LOX IMVI melanoma
[2] = system: SF-268 CNS
[3] = system: SN12C renal
[4] = system: SK-MEL-5 melanoma
[5] = system: HCC-2998 colon
[6] = system: T-47D breast
[7] = system: SR leukemia
[8] = system: NCI-H460 NSCLC
[9] = system: NCI-H322M lung
[10] = system: OVCAR-8 ovarian
[11] = system: TK-10 renal
[12] = system: UACC-62 melanoma
[13] = system: SW-620 colon
[14] = system: OVCAR-4 ovarian
[15] = system: M14 melanoma
[16] = system: MCF7 breast
[17] = system: SF-295 CNS
[18] = system: CAKI-1 renal
[19] = system: UO-31 renal
[20] = system: BT-549 breast
[21] = system: HT29 colon
[22] = system: NCI/ADR-RES ovarian
[23] = system: COLO 205 colon
[24] = system: A498 renal
[25] = system: RPMI-8226 leukemia
[26] = system: HL-60(TB) leukemia
[27] = system: SK-OV-3 ovarian
[28] = system: MOLT-4 leukemia
[29] = system: KM12 colon
[30] = system: SF-539 CNS
[31] = system: MDA-MB-231 breast
[32] = system: SNB-19 CNS
[33] = system: U251 glioblastoma
[34] = system: ACHN renal
[35] = system: HS 578T breast
[36] = system: SK-MEL-28 melanoma
[37] = system: CCRF-CEM leukemia
[38] = system: NCI-H522 lung
[39] = system: OVCAR-5 ovarian
[40] = system: IGROV1 ovarian
[41] = system: HOP-62 NSCLC
[42] = system: UACC-257 melanoma
[43] = system: HCT-15 colon
[44] = system: NCI-H23 lung
[45] = system: K-562 leukemia
[46] = system: 786-0 renal
[47] = system: A549 NSCLC
[48] = system: NCI-H226 lung
[49] = system: OVCAR-3 ovarian
[50] = system: PC-3 prostate
[51] = system: SNB-75 CNS
[52] = system: EKVX NSCLC
[53] = system: RXF 393 renal
[54] = system: HOP-92 NSCLC
[55] = system: DU-145 prostate
[56] = system: MALME-3M melanoma
[57] = system: MDA-MB-468 breast
[58] = system: MDA-MB-435 melanoma

COCCOC(=O)C1=C(C)NC2=C(C(=O)CC(c3ccccc3OC)C2)C1c1cccc(O)c1 (stereo unspecified)
GI50 [1]: 3.75 µM
TGI [1]: 13.6 µM
GI50 [2]: 15.5 µM
TGI [2]: 37 µM
GI50 [3]: 15.6 µM
TGI [3]: 41.2 µM
GI50 [4]: 4.43 µM
TGI [4]: 18.1 µM
GI50 [5]: 3.67 µM
TGI [5]: 15.2 µM
GI50 [6]: 8.93 µM
TGI [6]: 66.7 µM
GI50 [7]: 0.761 µM
TGI [7]: 11.5 µM
GI50 [8]: 14.7 µM
TGI [8]: 30.8 µM
GI50 [9]: 12.7 µM
TGI [9]: > 100 µM
GI50 [10]: 6.94 µM
TGI [10]: 21.6 µM
GI50 [11]: 8.47 µM
TGI [11]: 28.1 µM
GI50 [12]: 2.38 µM
TGI [12]: 16.6 µM
GI50 [13]: 13 µM
TGI [13]: 27 µM
GI50 [14]: 2.14 µM
TGI [14]: 8.76 µM
GI50 [15]: 11 µM
TGI [15]: 34.9 µM
GI50 [16]: 2.68 µM
TGI [16]: 20.7 µM
GI50 [17]: 16.2 µM
TGI [17]: 37.5 µM
GI50 [18]: 4.44 µM
TGI [18]: 27.9 µM
GI50 [19]: 34.6 µM
TGI [19]: > 100 µM
GI50 [20]: 2.55 µM
TGI [20]: 14.9 µM
GI50 [21]: 6.75 µM
TGI [21]: 22.2 µM
GI50 [22]: 46.3 µM
TGI [22]: > 100 µM
GI50 [23]: 7.74 µM
TGI [23]: 24.6 µM
GI50 [24]: 10.6 µM
TGI [24]: 29.6 µM
GI50 [25]: 1.08 µM
TGI [25]: 4.87 µM
GI50 [26]: 1.27 µM
TGI [26]: 3.17 µM
GI50 [27]: 3.74 µM
TGI [27]: 20.4 µM
GI50 [28]: 7.21 µM
TGI [28]: 20.7 µM
GI50 [29]: 9.21 µM
TGI [29]: 26.2 µM
GI50 [30]: 11.2 µM
TGI [30]: 27.3 µM
GI50 [31]: 4.79 µM
TGI [31]: 60.4 µM
GI50 [32]: 11.4 µM
TGI [32]: 38 µM
GI50 [33]: 17.2 µM
TGI [33]: 44 µM
GI50 [34]: 17.3 µM
TGI [34]: 55.6 µM
GI50 [35]: 1.93 µM
TGI [35]: 8.82 µM
GI50 [36]: 11 µM
TGI [36]: 31 µM
GI50 [37]: 5.99 µM
TGI [37]: 19.4 µM
GI50 [38]: 2.39 µM
TGI [38]: 13.7 µM
GI50 [39]: 12 µM
TGI [39]: 43.1 µM
GI50 [40]: 8.28 µM
TGI [40]: 24.7 µM
GI50 [41]: 5.19 µM
TGI [41]: 22.1 µM
GI50 [42]: 5.14 µM
TGI [42]: 22.8 µM
GI50 [43]: 11.6 µM
TGI [43]: 27 µM
GI50 [44]: 8.58 µM
TGI [44]: 25.8 µM
GI50 [45]: 5.62 µM
TGI [45]: 19.6 µM
GI50 [46]: 5.49 µM
TGI [46]: 24.2 µM
GI50 [47]: 6.88 µM
TGI [47]: 31 µM
GI50 [48]: 4.91 µM
TGI [48]: 27.6 µM
GI50 [49]: 5.05 µM
TGI [49]: 17.6 µM
GI50 [50]: 15.6 µM
TGI [50]: 53.6 µM
GI50 [51]: 9.16 µM
TGI [51]: 98.6 µM
GI50 [52]: 17.6 µM
TGI [52]: 62.2 µM
GI50 [53]: 16.2 µM
TGI [53]: 34.9 µM
GI50 [54]: 4.02 µM
TGI [54]: 21 µM
GI50 [55]: 18.5 µM
TGI [55]: 65 µM
GI50 [56]: 4.14 µM
TGI [56]: 23.2 µM
GI50 [57]: 2.5 µM
TGI [57]: 7.67 µM
GI50 [58]: 9.55 µM
TGI [58]: 24.8 µM
